The test system of this assay is c-myc in 22RV-1 cells. Description: Human c-myc ELISA assay. The conditions noted are these: Homo sapiens; for Emax: 22Rv1, 18 h, read-out: Degradation of BRD4: Maximum inhibition (%) c-Myc ELISA in 22RV1 cells; for DC50: 22Rv1, read-out: Degradation of BRD4: DC50 (uM) c-Myc ELISA in 22RV1 cells. It counts as cell-based. The essentials:
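22RV-1 cells treated 18 h with 8-point 1:3 compound dilutions (final top 300 nM or 1 μM, 0.1% DMSO). Cells lysed in RIPA buffer with protease/phosphatase inhibitors, and c-myc protein in cleared lysate quantified by ELISA against a standard curve. DC50 reported for c-myc suppression.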
(In general: ELISA stands for enzyme-linked immunosorbent assay.)

SMILES strings stand for the structures.

The DC50 is the concentration giving 50% degradation. Turning to `Cc1ncsc1-c1ccc([C@H](C)NC(=O)[C@@H]2C[C@@H](O)CN2C(=O)[C@@H](NC(=O)[C@@H](C)OCCCOCCNC(=O)C[C@@H]2N=C(c3ccc(Cl)cc3)c3c(sc(C)c3C)-n3c(C)nnc32)C(C)(C)C)cc1` [Example 154], the Emax is 94.5% and the DC50 is < 0.01 µM.
The like results for `CC(=O)N[C@H](C(=O)N1C[C@H](O)C[C@H]1C(=O)NCc1ccc(-c2scnc2C)cc1OCCCOc1ccc(C2=N[C@@H](CC(=O)Nc3ccccc3)c3nnc(C)n3-c3sc(C)c(C)c32)cc1)C(C)(C)C` [Example 155] were, in that order, 65.5% and 0.1 to 1 µM.
Taken in the same sequence, the figures for `Cc1ncsc1-c1ccc([C@H](C)NC(=O)[C@@H]2C[C@@H](O)CN2C(=O)[C@@H](NC(=O)CCc2cc(F)cc(OC(C)CNC(=O)C[C@@H]3N=C(c4ccc(Cl)cc4)c4c(sc(C)c4C)-n4c(C)nnc43)c2)C(C)(C)C)cc1` (stereo partly drawn) [Example 156] were 96.5% and < 0.01 µM.
Regarding `Cc1ncsc1-c1ccc([C@H](C)NC(=O)[C@@H]2C[C@@H](O)CN2C(=O)[C@@H](NC(=O)c2ccc(OC(C)CCNC(=O)C[C@@H]3N=C(c4ccc(Cl)cc4)c4c(sc(C)c4C)-n4c(C)nnc43)cn2)C(C)(C)C)cc1` (stereo partly drawn) [Example 157], the Emax came to 97% and the DC50 was < 0.01 µM.
As for `Cc1ncsc1-c1ccc([C@H](C)NC(=O)[C@@H]2C[C@@H](O)CN2C(=O)[C@@H](NC(=O)/C=C/c2cccc(O[C@@H](C)CNC(=O)C[C@@H]3N=C(c4ccc(Cl)cc4)c4c(sc(C)c4C)-n4c(C)nnc43)c2)C(C)(C)C)cc1` [Example 158], the Emax worked out at 96.5% and the DC50 was < 0.01 µM.
For `Cc1ncsc1-c1ccc([C@H](C)NC(=O)[C@@H]2C[C@@H](O)CN2C(=O)[C@@H](NC(=O)/C=C/c2cccc(O[C@H](C)CNC(=O)C[C@@H]3N=C(c4ccc(Cl)cc4)c4c(sc(C)c4C)-n4c(C)nnc43)c2)C(C)(C)C)cc1` [Example 159], the Emax was 96.5% and the DC50 was < 0.01 µM.
The like results for `Cc1ncsc1-c1ccc([C@H](C)NC(=O)[C@@H]2C[C@@H](O)CN2C(=O)[C@@H](NC(=O)/C=C/c2ccc(F)c(O[C@@H](C)CNC(=O)C[C@@H]3N=C(c4ccc(Cl)cc4)c4c(sc(C)c4C)-n4c(C)nnc43)c2)C(C)(C)C)cc1` [Example 160] were, in that order, 94.5% and < 0.01 µM.
The like results for `Cc1ncsc1-c1ccc([C@H](C)NC(=O)[C@@H]2C[C@@H](O)CN2C(=O)[C@@H](NC(=O)/C=C/c2ccc(F)c(O[C@H](C)CNC(=O)C[C@@H]3N=C(c4ccc(Cl)cc4)c4c(sc(C)c4C)-n4c(C)nnc43)c2)C(C)(C)C)cc1` [Example 161] were, in that order, 97% and < 0.01 µM.
For the compound `Cc1ncsc1-c1ccc(CNC(=O)[C@@H]2C[C@@H](O)CN2C(=O)[C@@H](C(C)C)n2cc(-c3cccc(OCCNC(=O)C[C@@H]4N=C(c5ccc(Cl)cc5)c5c(sc(C)c5C)-n5c(C)nnc54)c3)cn2)cc1` [Example 162], the Emax turned out to be 7.62% and the DC50 was > 1 µM.
Taken in the same sequence, the figures for `Cc1ncsc1-c1ccc(CNC(=O)[C@@H]2C[C@@H](O)CN2C(=O)[C@H](C(C)C)n2cc(-c3cccc(OCCNC(=O)C[C@@H]4N=C(c5ccc(Cl)cc5)c5c(sc(C)c5C)-n5c(C)nnc54)c3)cn2)cc1` [Example 163] were 96.5% and < 0.01 µM.
The like results for `Cc1ncsc1-c1ccc(CNC(=O)[C@@H]2C[C@@H](O)CN2C(=O)[C@@H](NC(=O)c2cccc(CCOCCNC(=O)C[C@@H]3N=C(c4ccc(Cl)cc4)c4c(sc(C)c4C)-n4c(C)nnc43)n2)C(C)(C)C)cc1` [Example 164] were, in that order, 96% and 0.01 to 0.1 µM.
As for `Cc1ncsc1-c1ccc([C@H](C)NC(=O)[C@@H]2C[C@@H](O)CN2C(=O)[C@@H](NC(=O)c2cc3cc(OCCNC(=O)C[C@@H]4N=C(c5ccc(Cl)cc5)c5c(sc(C)c5C)-n5c(C)nnc54)ccc3o2)C(C)(C)C)cc1` [Example 165, (2S,4R)-1-[(2S)-2-{[5-(2-{2-[(9S)-7-(4-chlorophenyl)-4,5,13-trimethyl-3-thia-1,8,11,12-tetraazatricyclo[8.3.0.0^2,^6]trideca-2(6),4,7,10,12-pentaen-9-yl]acetamido}ethoxy)-1-benzofuran-2-yl]formamido}-3,3-dimethylbutanoyl]-4-hydroxy-N-[(1S)-1-[4-(4-methyl-1,3-thiazol-5-yl)phenyl]ethyl]pyrrolidine-2-carboxamide], the Emax was 97% and the DC50 is < 0.01 µM.
Taken in the same sequence, the figures for `Cc1ncsc1-c1ccc([C@H](C)NC(=O)[C@@H]2C[C@@H](O)CN2C(=O)[C@@H](NC(=O)COCCCOCCCCOc2ccc3c(c2)c2c(C(N)=O)cc(-c4c(C)noc4C)cc2n3Cc2ccccc2)C(C)(C)C)cc1` [Example 166] were 97% and < 0.01 µM.
The like results for `Cc1ncsc1-c1ccc(CNC(=O)[C@@H]2C[C@@H](O)CN2C(=O)[C@@H](C(C)C)n2cc(-c3ccnc(O[C@H](C)CNC(=O)C[C@@H]4N=C(c5ccc(Cl)cc5)c5c(sc(C)c5C)-n5c(C)nnc54)c3)cn2)cc1` [Example 167] were, in that order, 27.6% and > 1 µM.
The like results for `Cc1ncsc1-c1ccc(CNC(=O)[C@@H]2C[C@@H](O)CN2C(=O)[C@H](C(C)C)n2cc(-c3ccnc(O[C@H](C)CNC(=O)C[C@@H]4N=C(c5ccc(Cl)cc5)c5c(sc(C)c5C)-n5c(C)nnc54)c3)cn2)cc1` [Example 168] were, in that order, 92% and 0.01 to 0.1 µM.
For the compound `Cc1ncsc1-c1ccc([C@H](C)NC(=O)[C@H]2C[C@H](O)CN2C(=O)[C@@H](NC(=O)COc2ccc(O[C@H]3C[C@@H](NC(=O)C[C@@H]4N=C(c5ccc(Cl)cc5)c5c(sc(C)c5C)-n5c(C)nnc54)C3)nc2)C(C)(C)C)cc1` [Example 169], the Emax was found to be 42.2% and the DC50 is > 1 µM.
For `Cc1ncsc1-c1ccc([C@H](C)NC(=O)[C@@H]2C[C@@H](O)CN2C(=O)[C@@H](NC(=O)c2cc3cc(OCCCNC(=O)C[C@@H]4N=C(c5ccc(Cl)cc5)c5c(sc(C)c5C)-n5c(C)nnc54)ccc3o2)C(C)(C)C)cc1` [Example 170, (2S,4R)-1-[(2S)-2-{[5-(3-{2-[(9S)-7-(4-chlorophenyl)-4,5,13-trimethyl-3-thia-1,8,11,12-tetraazatricyclo[8.3.0.0^2,^6]trideca-2(6),4,7,10,12-pentaen-9-yl]acetamido}propoxy)-1-benzofuran-2-yl]formamido}-3,3-dimethylbutanoyl]-4-hydroxy-N-[(1S)-1-[4-(4-methyl-1,3-thiazol-5-yl)phenyl]ethyl]pyrrolidine-2-carboxamide], the Emax is 97% and the DC50 was < 0.01 µM.
For `Cc1ncsc1-c1ccc([C@H](C)NC(=O)[C@@H]2C[C@@H](O)CN2C(=O)[C@@H](NC(=O)CCc2ccc(O[C@H]3C[C@@H](NC(=O)C[C@@H]4N=C(c5ccc(Cl)cc5)c5c(sc(C)c5C)-n5c(C)nnc54)C3)nc2)C(C)(C)C)cc1` [Example 171], the Emax worked out at 97% and the DC50 is < 0.01 µM.
Taken in the same sequence, the figures for `Cc1ncsc1-c1ccc([C@H](C)NC(=O)[C@@H]2C[C@@H](O)CN2C(=O)[C@@H](NC(=O)CCc2ccc(O[C@H]3C[C@H](NC(=O)C[C@@H]4N=C(c5ccc(Cl)cc5)c5c(sc(C)c5C)-n5c(C)nnc54)C3)nc2)C(C)(C)C)cc1` [Example 172] were 96% and < 0.01 µM.
The like results for `Cc1ncsc1-c1ccc([C@H](C)NC(=O)[C@@H]2C[C@@H](O)CN2C(=O)[C@@H](NC(=O)CCc2cc(F)cc(O[C@H]3C[C@H](NC(=O)C[C@@H]4N=C(c5ccc(Cl)cc5)c5c(sc(C)c5C)-n5c(C)nnc54)C3)c2)C(C)(C)C)cc1` [Example 173, (2S,4R)-1-[(2S)-2-(3-{3-fluoro-5-[(1,3-trans)-3-{2-[(9S)-7-(4-chlorophenyl)-4,5,13-trimethyl-3-thia-1,8,11,12-tetraazatricyclo[8.3.0.0^2,^6]trideca-2(6),4,7,10,12-pentaen-9-yl]acetamido}cyclobutoxy]phenyl}propanamido)-3,3-dimethylbutanoyl]-4-hydroxy-N-[(1S)-1-[4-(4-methyl-1,3-thiazol-5-yl)phenyl]ethyl]pyrrolidine-2-carboxamide] were, in that order, 98% and < 0.01 µM.
The like results for `Cc1ncsc1-c1ccc(CNC(=O)[C@@H]2C[C@@H](O)CN2C(=O)[C@@H](NC(=O)COCCOCCOc2ccc3c(c2)c2c(C(N)=O)cc(-c4c(C)noc4C)cc2n3Cc2ccccc2)C(C)(C)C)cc1` [Example 174] were, in that order, 96.4% and 0.01 to 0.1 µM.
Consider `Cc1ncsc1-c1ccc(CNC(=O)[C@@H]2C[C@@H](O)CN2C(=O)[C@@H](NC(=O)COCCCCOc2ccc3c(c2)c2c(C(N)=O)cc(-c4c(C)noc4C)cc2n3Cc2ccccc2)C(C)(C)C)cc1` [Example 175], for which the Emax worked out at 92% and the DC50 lay within 0.01 to 0.1 µM.
Taken in the same sequence, the figures for `Cc1ncsc1-c1ccc([C@H](C)NC(=O)[C@@H]2C[C@@H](O)CN2C(=O)[C@@H](NC(=O)CCCCOCCCNC(=O)C[C@@H]2N=C(c3ccc(Cl)cc3)c3c(sc(C)c3C)-n3c(C)nnc32)C(C)(C)C)cc1` [Example 176] were 90.3% and < 0.01 µM.
`Cc1ncsc1-c1ccc(CNC(=O)[C@@H]2C[C@@H](O)CN2C(=O)[C@@H](C(C)C)n2cc(-c3ccnc(O[C@H]4C[C@@H](NC(=O)C[C@@H]5N=C(c6ccc(Cl)cc6)c6c(sc(C)c6C)-n6c(C)nnc65)C4)c3)cn2)cc1` [Example 177, (2S,4R)-4-hydroxy-N-{[4-(4-methyl-1,3-thiazol-5-yl)phenyl]methyl}-1-[(2R)-3-methyl-2-(4-{2-[(1,3-cis)-3-{2-[(9S)-7-(4-chlorophenyl)-4,5,13-trimethyl-3-thia-1,8,11,12-tetraazatricyclo[8.3.0.0^2,^6]trideca-2(6),4,7,10,12-pentaen-9-yl]acetamido}cyclobutoxy]pyridin-4-yl}-1H-pyrazol-1-yl)butanoyl]pyrrolidine-2-carboxamide]: the Emax stood at 39.3% and the DC50 was > 1 µM.

For the origin of these results see US11554171B2, “Compounds and methods for the targeted degradation of bromodomain-containing proteins” (Arvinas Operations, Inc., priority 2015, dated 2023).
